What was measured:
[1] = biological target: wild-type Epidermal Growth Factor Receptor (EGFR) (Homo sapiens (Human), UniProt P00533); assay: WT-EGFR Kinase Assay (TR-FRET, 2 mM ATP); assay type: biochemical; settings: read-out: EGFR Wildtype-2 mM ATP IC50 [mol/l] (median), comparison compounds of WO 2016/120196 (Table 4)
From the text: Inhibitory activity of compounds of the present invention against wild-type Epidermal Growth Factor Receptor (EGFR) was quantified employing the TR-FRET based EGFR assay as described in the following paragraphs.
Recombinant fusion protein of N-terminal Glutathion-S-Transferase (GST) and a fragment of human EGFR (amino acids R669 to A1210), expressed in Sf9 insect cells and purified via affinity chromatography using Glutathion Sepharose as described above, was used as kinase. As substrate for the kinase reaction the biotinylated peptide biotin-Ahx-[…] (C-terminus in amide form) was used which can be purchased e.g. form the company Biosynthan GmbH (Berlin-Buch, Germany).
For the assay 50 nl of a 100 fold concentrated solution of the test compound in DMSO was pipetted into either a black low volume 384 well microtiter plate or a black 1536 well microtiter plate (both Greiner Bio-One, Frickenhausen, Germany), 2 μL of a solution of EGFR in aqueous assay buffer [50 mM Hepes pH 7.0, 10 mM MgCl2, 1 mM dithiothreitol, 0.5 mM EGTA, 0.3 mM activated sodium ortho-vanadate, 0.005% (w/v) bovine serum albumin, 0.005% (v/v) Tween-20] were added and the mixture was incubated for 15 min at 22° C. to allow pre-binding of the test compounds to the enzyme before the start of the kinase reaction. […] The concentration of EGFR was adjusted depending of the activity of the enzyme lot and was chosen appropriate to have the assay in the linear range, typical concentration was 7.6 pg/μL. The reaction was stopped by the addition of 3 μL of a solution of HTRF detection reagents (83.3 nM streptavidine-XL665 [Cisbio Bioassays, Codolet, France] and 1.67 nM PT66-Tb-Cryptate, a terbium-cryptate labelled anti-phospho-tyrosine antibody from Cisbio Bioassays [instead of the PT66-Tb-cryptate PT66-Eu-Chelate from Perkin Elmer can also be used]) in an aqueous EDTA-solution (133.3 mM EDTA, 0.2% (w/v) bovine serum albumin in 50 mM HEPES pH 7.5).
The resulting mixture was incubated 1 h at 22° C. to allow the binding of the biotinylated phosphorylated peptide to the streptavidine-XL665 and the PT66-Tb-Cryptate. Subsequently the amount of phosphorylated substrate was evaluated by measurement of the resonance energy transfer from the PT66-Tb-Cryptate to the streptavidine-XL665. Therefore, the fluorescence emissions at 620 nm and 665 nm after excitation at 337 nm were measured in a HTRF reader, e.g. a Pherastar (BMG Labtechnologies, Offenburg, Germany) or a Viewlux (Perkin-Elmer). The ratio of the emissions at 665 nm and at 622 nm was taken as the measure for the amount of phosphorylated substrate.

CSNK1A1 = CSNK1A1 (Homo sapiens (Human), UniProt P48729); assay: CSNK1A1 Assay 1 (ADP-Glo, 1 μM ATP, substrate Btn-Ahx-[…]); assay type: biochemical; settings: median, comparison compounds of WO 2016/120196 (Table 4), read-out: CSNK1A1 Assay 1 IC50 [mol/l] (median)
CSNK1A1, sequence (P48729 whole entry): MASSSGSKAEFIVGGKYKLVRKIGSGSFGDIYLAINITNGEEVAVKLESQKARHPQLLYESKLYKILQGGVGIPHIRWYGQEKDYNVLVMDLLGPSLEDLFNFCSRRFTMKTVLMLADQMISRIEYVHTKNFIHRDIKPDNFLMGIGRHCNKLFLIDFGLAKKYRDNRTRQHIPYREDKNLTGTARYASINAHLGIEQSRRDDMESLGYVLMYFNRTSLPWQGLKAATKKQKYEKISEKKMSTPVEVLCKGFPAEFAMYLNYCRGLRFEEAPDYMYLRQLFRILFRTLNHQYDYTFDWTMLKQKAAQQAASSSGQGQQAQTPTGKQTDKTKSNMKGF
Method: CSNK1A1-inhibitory activity of compounds of the present invention in presence of 1 μM adenosine-tri-phosphate (ATP) was quantified employing the CSNK1A1 assay as described in the following paragraphs. In essence, the enzyme activity is measured by quantification of the adenosine-di-phosphate (ADP), which is generated as a co-product of the enzyme reaction, via the “ADP-Glo™ Kinase Assay” kit from the company Promega. This detection system works as follows: In a first step the ATP not consumed in the kinase reaction is quantitatively converted to cAMP employing an adenylate cyclase (“ADP-Glo-reagent”), then the adenylate cyclase is stopped and the ADP generated in the kinase reaction converted to ATP which generates in a luciferase-based reaction a glow-luminescence signal (“Kinase Detection Reagent”).
Recombinant fusion protein of N-terminal Glutathion-S-Transferase (GST) and full-length human CSNK1A1, expressed by baculovirus infected insect cells and purified via Glutathion affinity chromatography, was purchased from Life Technologies (product no. PV4174) and used as enzyme. As substrate for the kinase reaction the biotinylated peptide Btn-Ahx-[…] (C-terminus in amide form) was used which can be purchased e.g. from the company Biosyntan (Berlin-Buch, Germany). […]

With “2-(4-fluorophenyl)-N-{4-[7-(2-oxopyrrolidin-1-yl)-3-(pyridin-2-yl)-1H-pyrrolo[3,2-b]pyridin-2-yl]pyridin-2-yl}acetamide [Example 40]” the IC50 [1] was 85.5 nM and the IC50 (CSNK1A1) was 24.1 nM.
